Reference: article PMC10584170, “Machine learning-based phenotypic imaging to characterise the targetable biology of Plasmodium falciparum male gametocytes for the development of transmission-blocking antimalarials” (PLOS Pathogens, 2023)
Where two headings read alike, the source gives them in different places.

What was measured:
[1] = system: P. falciparum male gametocytes; assay: P. falciparum Dual Gamete Formation Assay (PfDGFA), male readout (exflagellation); type: cell-based, Plasmodium falciparum NF54; settings: for Selectivity Ratio M: HepG2 Tox50 versus male IC50; for inhibition at 2 µM / IC50: Plasmodium falciparum; for IC50: PfDGFA, 24 h incubation with gametocytes before induction, exflagellation readout, read-out: Male IC50; for Activity: hit = >50% inhibition in male or female readout in at least 3 replicates, 0 = no class assigned
Experimental: (§1) P. falciparum NF54 (originally isolated from an imported malaria case in the Netherlands in the 1980s; BEI Resources, cat. No. MRA-1000) strain asexual parasites were maintained between 0.3–5% parasitaemia by regular passage in complete culture medium (RPMI supplemented with 25 mM HEPES, 50 μg ml^−1 hypoxanthine, 4.8 g l^−1 NaHCO3, 2mM L-glutamine, 5% pooled type AB serum, 0.5% Albumax II (Gibco)) at 4% haematocrit in washed whole blood (National Blood and Transfusion Service or Centro de Transfusiones de la Comunidad de Madrid CTCM) under a 1% O2/3% CO2/96% N2 environment. Gametocytes were induced by seeding culture flasks at 2% parasitaemia/4% haematocrit and subjecting them to daily medium changes for 14 days whilst maintaining a temperature of 37°C at all times. On Day 14, the maturity of gametocytes was assessed by quantifying male gametogenesis (exflagellation). A 20 μl sample of gametocyte culture was mixed with equal volume of ookinete medium (complete culture medium supplemented with 0.1 μM xanthurenic acid) at room temperature and transferred to a haemocytometer. After 20 min at room temperature, exflagellation was accurately quantified as described in Delves et al. 2016 [17].
(§2) The Pf DGFA was performed as described in Delves et al. 2016 [17]. […] Plates were then incubated for 24 h at 37°C in a humidified box under a 1% O2/3% CO2/96% N2 gas mix. Gametogenesis was triggered by addition of 10 μl per well of ookinete medium + 0.27 μg ml^-1 Cy3-labelled anti-Pfs25 antibody. Plates were incubated on a metal block at 4°C for 4 min to ensure even cooling, then 28°C for a further 4 min. Exflagellation was recorded by capturing 10 frames over 1 s under brightfield illumination using a x4 objective with a 1.5x zoom (effectively x6) attached to an automated Nikon Ti fluorescence microscope. After recording exflagellation, plates were incubated for a further 24 h in the dark at 28°C to ensure maximal expression of Pfs25 by female gametes. The plates were then returned to the microscope and female gametes imaged at x6 using fluorescence microscopy.
(§3) Exflagellation centres and female gametes were quantified using custom image analysis pipelines developed within ICY Bioimage Analysis (https://icy.bioimageanalysis.org/).

[2] = system: P. falciparum female gametocytes; assay: P. falciparum Dual Gamete Formation Assay (PfDGFA), female readout (Pfs25-positive female gametes); type: cell-based, Plasmodium falciparum NF54; settings: for Selectivity ratio F: HepG2 Tox50 versus female IC50; for inhibition at 2 µM / IC50: Plasmodium falciparum; for IC50: PfDGFA, 24 h incubation with gametocytes before induction, female gamete readout, read-out: Female IC50
Experimental: as §1, §2, §3

[3] = 2µM, 24h preincubation with gametocytes prior to induction of gametogenesis, average of replicates
[4] = 2µM, 24h preincubation with gametocytes prior to induction of gametogenesis, replicate R1
[5] = 2µM, 24h preincubation with gametocytes prior to induction of gametogenesis, replicate R3
[6] = 2µM, 24h preincubation with gametocytes prior to induction of gametogenesis, replicate R4
[7] = 2µM, 24h preincubation, hits selected on >50% inhibition in the male readout across replicates
[8] = PfDGFA at 2µM, 24h preincubation
[9] = 2µM, 24h preincubation, hits selected on >50% inhibition in the female readout across replicates
[10] = PfDGFA at 2µM, 24h preincubation with gametocytes prior to induction of gametogenesis, replicate R1
[11] = PfDGFA at 2µM, 24h preincubation with gametocytes prior to induction of gametogenesis, replicate R4
[12] = PfDGFA at 2µM, 24h preincubation, average of replicates
[13] = PfDGFA at 2µM, 24h preincubation with gametocytes prior to induction of gametogenesis, replicate R3
[14] = 2µM, 24h preincubation, number of replicates with >50% inhibition in the male readout
[15] = 2µM, 24h preincubation, number of replicates with >50% inhibition in the female readout

| SMILES | Average inhibition male (%) [1, 3] | % inhibition male (individual replicates) R1 [1, 4] | % inhibition male (individual replicates) R3 [1, 5] | % inhibition male (individual replicates) R4 [1, 6] | HitlevelM [1, 7] | Activity [1, 8] | Average inhibition female (%) [2, 3] | % inhibition female (individual replicates) R1 [2, 4] | % inhibition female (individual replicates) R3 [2, 5] | % inhibition female (individual replicates) R4 [2, 6] | HitlevelF [2, 9] | % inhibition male (individual replicates) R1 [1, 10] | % inhibition male (individual replicates) R4 [1, 11] | Average inhibition male (%) [1, 12] | % inhibition female (individual replicates) R1 [2, 10] | % inhibition female (individual replicates) R3 [2, 13] | % inhibition female (individual replicates) R4 [2, 11] | Average inhibition female (%) [2, 12] | further results |
| --- | --- | --- | --- | --- | --- | --- | --- | --- | --- | --- | --- | --- | --- | --- | --- | --- | --- | --- | --- |
| FC(F)(F)c1cccc(NC(=S)NN=Cc2ccccn2)c1 [TCMDC-123509] |  |  |  |  |  |  |  |  |  |  |  |  |  |  |  |  |  |  | Selectivity Ratio M [1]: 143.09; inhibition at 2 µM ([1]; 2µM, 24h preincubation with gametocytes, average of replicates, read-out: Average inhibition male (%)): 94.6%; inhibition at 2 µM ([1]; 2µM, 24h preincubation with gametocytes, replicate R1, read-out: % inhibition male (individual replicates) R1): 103%; inhibition at 2 µM ([1]; 2µM, 24h preincubation with gametocytes, replicate R2, read-out: % inhibition male (individual replicates) R2): 94.6%; inhibition at 2 µM ([1]; 2µM, 24h preincubation with gametocytes, replicate R3, read-out: % inhibition male (individual replicates) R3): 102%; inhibition at 2 µM ([1]; 2µM, 24h preincubation with gametocytes, replicate R4, read-out: % inhibition male (individual replicates) R4): 79.6%; IC50 [1]: 700 nM; Selectivity ratio F [2]: 142.25; inhibition at 2 µM ([2]; 2µM, 24h preincubation with gametocytes, average of replicates, read-out: Average inhibition female (%)): 50.5%; inhibition at 2 µM ([2]; 2µM, 24h preincubation with gametocytes, replicate R1, read-out: % inhibition female (individual replicates) R1): 35.3%; inhibition at 2 µM ([2]; 2µM, 24h preincubation with gametocytes, replicate R2, read-out: % inhibition female (individual replicates) R2): 76.8%; inhibition at 2 µM ([2]; 2µM, 24h preincubation with gametocytes, replicate R3, read-out: % inhibition female (individual replicates) R3): 45%; inhibition at 2 µM ([2]; 2µM, 24h preincubation with gametocytes, replicate R4, read-out: % inhibition female (individual replicates) R4): 45%; IC50 [2]: 700 nM |
| CC1(C)N=C(N)N=C(N)N1c1ccc(Oc2ccc(Cl)cc2)c(Cl)c1 [TCMDC-123522] | -4.1% | 6.1% | -10.9% | -16.5% | 0 | 0 | 4.9% | 11.0% | 16.4% | -0.18% | 0 |  |  |  |  |  |  |  |  |
| Cc1cc(N2CCN(C)CC2)nc2ccc(NC(=O)Cc3cccc(C(F)(F)F)c3)cc12 [TCMDC-123590] |  |  |  |  |  |  |  |  |  |  |  | 6.9% | -7.6% | 3.5% | 1.4% | 3.7% | -0.7% | 2.2% |  |
| Cc1ccc(-c2nc3cc(NC(=O)c4ccc([N+](=O)[O-])o4)ccc3o2)cc1Cl [TCMDC-123657] | 5.4% | 3.2% | -3.8% | 12.9% | 0 | 0 | 15.9% | 10.9% | 11.0% | 33.8% | 0 |  |  |  |  |  |  |  |  |
| CC(=O)c1cccc(S(=O)(=O)NCCCNc2nc3cc(C)cc(C)c3cc2C#N)c1 [TCMDC-123734] | -13.5% | -6.4% | -3.8% | -42.5% | 0 | 0 | 6.2% | 1.3% | -13.6% | 33.9% | 0 |  |  |  |  |  |  |  |  |
| COc1ccc(C2CC(c3cccs3)=NN2C(=O)c2ccccc2)cc1OC (centres unmarked) [TCMDC-123755] |  |  |  |  |  |  |  |  |  |  |  | -16.5% | 27.6% | 0.438% | 2.3% | -20.6% | -7.2% | -3.5% | % inhibition male (individual replicates) R3 [1, 13]: -10.3% |
| OC1CCN(c2cc(-c3ccccn3)nc(-c3ccccn3)n2)CC1 [TCMDC-123786] |  |  |  |  |  |  |  |  |  |  |  | -14.8% | -28.8% | -7.4% | -1.4% | -6.8% | 3.7% | 0.215% |  |
| Cc1cc(C(=O)OCC(=O)Nc2c(C)n(C)n(-c3ccccc3)c2=O)c(C)n1-c1ccc(F)cc1 [TCMDC-123794] |  |  |  |  |  |  |  |  |  |  |  |  |  |  |  |  |  |  | HitlevelM [1, 14]: 3; Selectivity Ratio M [1]: 52.65; inhibition at 2 µM ([1]; 2µM, 24h preincubation with gametocytes prior to induction of gametogenesis, average of replicates, read-out: Average inhibition male (%)): 57.2%; inhibition at 2 µM ([1]; 2µM, 24h preincubation with gametocytes prior to induction of gametogenesis, replicate R1, read-out: % inhibition male (individual replicates) R1): 63.3%; inhibition at 2 µM ([1]; 2µM, 24h preincubation with gametocytes prior to induction of gametogenesis, replicate R2, read-out: % inhibition male (individual replicates) R2): 40.1%; inhibition at 2 µM ([1]; 2µM, 24h preincubation with gametocytes prior to induction of gametogenesis, replicate R3, read-out: % inhibition male (individual replicates) R3): 55.8%; inhibition at 2 µM ([1]; 2µM, 24h preincubation with gametocytes prior to induction of gametogenesis, replicate R4, read-out: % inhibition male (individual replicates) R4): 69.6%; IC50 [1]: 1900 nM; HitlevelF [2, 15]: 2; Selectivity ratio F [2]: 69.69; inhibition at 2 µM ([2]; 2µM, 24h preincubation with gametocytes prior to induction of gametogenesis, average of replicates, read-out: Average inhibition female (%)): 48.8%; inhibition at 2 µM ([2]; 2µM, 24h preincubation with gametocytes prior to induction of gametogenesis, replicate R1, read-out: % inhibition female (individual replicates) R1): 29.7%; inhibition at 2 µM ([2]; 2µM, 24h preincubation with gametocytes prior to induction of gametogenesis, replicate R2, read-out: % inhibition female (individual replicates) R2): 52.6%; inhibition at 2 µM ([2]; 2µM, 24h preincubation with gametocytes prior to induction of gametogenesis, replicate R3, read-out: % inhibition female (individual replicates) R3): 40.8%; inhibition at 2 µM ([2]; 2µM, 24h preincubation with gametocytes prior to induction of gametogenesis, replicate R4, read-out: % inhibition female (individual replicates) R4): 72.3%; IC50 [2]: 1430 nM |
| N#CCSc1nnc(-c2ccccc2)c2ccccc12 [TCMDC-123867] |  |  |  |  |  |  |  |  |  |  |  | -3.0% | -3.8% | 1.3% | 9.7% | -27.1% | 6.9% | -4.3% | % inhibition male (individual replicates) R3 [1, 13]: 10.5% |
| CC1(C)N=C(N)N=C(N)N1c1ccc(Br)cc1.Cl [TCMDC-123959] | -8.5% | 15.3% | 4.6% | -63.1% |  |  | 18.2% | 15.6% | 12.6% | 26.1% |  |  |  |  |  |  |  |  | HitlevelM [1, 14]: 0; HitlevelF [2, 15]: 0 |
| CC1(C)N=C(N)N=C(N)N1c1cccc(Cl)c1.Cl [TCMDC-123960] |  |  |  |  |  |  |  |  |  |  |  | 4.7% | -9.8% | 3.0% | 5.3% | -21.5% | 5.4% | -0.8% | % inhibition male (individual replicates) R3 [1, 13]: -1.4% |
| Br.C[C@@H](COc1ccc(-c2ccccc2)cc1)CON1C(N)=NC(N)=NC1(C)C [TCMDC-124029] | 12.1% | 13.7% | -5.2% | 7.3% | 0 | 0 | 5.2% | -6.6% | 32.8% | -1.3% | 0 |  |  |  |  |  |  |  |  |
